Results: ChEMBL document CHEMBL1132959, “Design of potent dicyclic (1-5/4-10) gonadotropin releasing hormone (GnRH) antagonists” (J Med Chem, 2000)
Bridge positions count the residues as written; N and C are the ends. Square brackets hold non-standard residues; d marks the D form. Peptide text beside a SMILES is read from it. dPhe(4-Cl) = N[C@H](Cc1ccc(Cl)cc1)C(=O)O; dPhe(4-F) = N[C@H](Cc1ccc(F)cc1)C(=O)O; d2Nal = N[C@H](Cc1ccc2ccccc2c1)C(=O)O; NMeL = CN[C@@H](CC(C)C)C(=O)O; ΔPro = O=C(O)[C@@H]1C=CCN1; Dap = NC[C@H](N)C(=O)O; βAla = NCCC(=O)O

Species: Rattus norvegicus
Experiment: Antiovulatory potency at 2.5 ug/rat expressed as rats ovulating by total no. of rats (2/8)
Assay type: functional
Conditions: not given

Compound | Ovulating rats
CC(=O)N[C@@H]1CC(=O)NCC(=O)NCC[C@H]2NC(=O)[C@@H](CC(=O)NC[C@H](C(N)=O)NC(=O)[C@H]3CCCN3C(=O)[C@H](CCCN=C(N)N)NC(=O)[C@@H](CC(C)C)NC(=O)[C@@H](Cc3ccc4ccccc4c3)NC2=O)NC(=O)[C@@H](Cc2ccc3ccccc3c2)NC(=O)[C@H](Cc2ccc(Cl)cc2)NC1=O | 2

Target: T1, Gonadotropin-releasing hormone receptor (Rattus norvegicus, UniProt P30969)
T1 sequence (P30969 whole entry): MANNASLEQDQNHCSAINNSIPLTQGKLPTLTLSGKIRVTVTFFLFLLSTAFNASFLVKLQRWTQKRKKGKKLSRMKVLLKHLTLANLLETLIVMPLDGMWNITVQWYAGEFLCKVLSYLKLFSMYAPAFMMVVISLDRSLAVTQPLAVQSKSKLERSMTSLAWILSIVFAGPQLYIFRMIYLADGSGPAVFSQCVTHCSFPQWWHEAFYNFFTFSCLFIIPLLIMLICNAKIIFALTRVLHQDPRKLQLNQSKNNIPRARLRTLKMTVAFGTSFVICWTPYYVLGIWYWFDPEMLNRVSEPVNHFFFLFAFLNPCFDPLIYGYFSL
Experiment: Affinity for rat gonadotrophin releasing hormone (GnRH) receptor using HEK293 cells transfected with rat Gonadotropin-releasing hormone receptor
Assay type: cell-based
Conditions: not given

Compound | Ki
CC(=O)N[C@H](Cc1ccc2ccccc2c1)C(=O)N[C@H](Cc1ccc(Cl)cc1)C(=O)N[C@@H]1CSSC[C@@H](C(=O)N2CCC[C@H]2C(=O)N[C@H](C)C(N)=O)NC(=O)[C@H](CC(C)C)NC(=O)[C@@H](Cc2ccc3ccccc3c2)NC(=O)[C@H](CCCN=C(N)N)NC(=O)[C@H](C)NC1=O | 9.9 nM
CC(=O)N[C@H](Cc1ccc2ccccc2c1)C(=O)N[C@H](Cc1ccc(Cl)cc1)C(=O)N[C@@H]1CC(=O)NC[C@@H](C(=O)N2CCC[C@H]2C(=O)N[C@H](C)C(N)=O)NC(=O)[C@H](CC(C)C)NC(=O)[C@@H](Cc2ccc3ccccc3c2)NC(=O)[C@H](CCCN=C(N)N)NC(=O)[C@H](C)NC1=O | 21 nM
CC(=O)N[C@H](Cc1ccc2ccccc2c1)C(=O)N[C@H](Cc1ccc(Cl)cc1)C(=O)N[C@@H]1CC(=O)NCC[C@@H](C(=O)N2CCC[C@H]2C(=O)N[C@H](C)C(N)=O)NC(=O)[C@H](CC(C)C)NC(=O)[C@@H](Cc2ccc3ccccc3c2)NC(=O)[C@H](CCCNC(=N)N)NC(=O)[C@H](C)NC1=O | 13 nM
CC(=O)N[C@H](Cc1ccc2ccccc2c1)C(=O)N[C@H](Cc1ccc(Cl)cc1)C(=O)N[C@@H]1CC(=O)NCCCC[C@@H](C(=O)N2CCC[C@H]2C(=O)N[C@H](C)C(N)=O)NC(=O)[C@H](CC(C)C)NC(=O)[C@@H](Cc2ccc3ccccc3c2)NC(=O)[C@H](CCCN=C(N)N)NC(=O)[C@H](C)NC1=O | 2.3 nM
CC(=O)N[C@H](Cc1ccc2ccccc2c1)C(=O)N[C@H](Cc1ccc(Cl)cc1)C(=O)N[C@@H]1CC(=O)NCCC[C@@H](C(=O)N2CCC[C@H]2C(=O)N[C@H](C)C(N)=O)NC(=O)[C@H](CC(C)C)NC(=O)[C@@H](Cc2ccc3ccccc3c2)NC(=O)[C@H](CCCNC(=N)N)NC(=O)[C@H](C)NC1=O | 14 nM

The remaining lines, values ahead:

Ki | Compound
14 nM | CC(C)C[C@H]1C(=O)N[C@@H](CCCN=C(N)N)C(=O)N2CCC[C@H]2C(=O)NCCC(=O)N2CC=C[C@H]2C(=O)N[C@H](Cc2ccc(Cl)cc2)C(=O)N[C@H](Cc2c[nH]c3ccccc23)C(=O)N[C@@H](CO)C(=O)N[C@@H](Cc2ccc(O)cc2)C(=O)N[C@H](Cc2c[nH]c3ccccc23)C(=O)N1C (cyclo([NMeL]RP[βAla][ΔPro][dPhe(4-Cl)][dW]SY[dW]))
0.24 nM | CC(=O)N[C@H]1CCC(=O)NCC(=O)NCC[C@@H]2NC(=O)[C@H](CC(=O)NC[C@@H](C(N)=O)NC(=O)[C@@H]3CCCN3C(=O)[C@H](CCCNC(=N)N)NC(=O)[C@H](CC(C)C)NC(=O)[C@@H](Cc3ccc4ccccc4c3)NC2=O)NC(=O)[C@@H](Cc2c[nH]c3ccccc23)NC(=O)[C@@H](Cc2ccc(Cl)cc2)NC1=O
0.27 nM | CC(=O)N1CC=C[C@H]1C(=O)N[C@H](Cc1ccc(F)cc1)C(=O)N[C@H](Cc1c[nH]c2ccccc12)C(=O)N[C@H]1CC(=O)NC[C@@H](C(N)=O)NC(=O)[C@@H]2CCCN2C(=O)[C@H](CCCN=C(N)N)NC(=O)[C@H](CC(C)C)NC(=O)[C@@H](Cc2ccc3ccccc3c2)NC(=O)[C@H](Cc2ccc(O)cc2)NC1=O (Ac-[ΔPro][dPhe(4-F)][dW]DY[d2Nal]LRP[Dap]-NH2; lactam 4-10)
0.22 nM | CC(=O)N[C@H]1CC(=O)NCC(=O)NCC[C@@H]2NC(=O)[C@H](CC(=O)NC[C@@H](C(N)=O)NC(=O)[C@@H]3CCCN3C(=O)[C@H](CCCN=C(N)N)NC(=O)[C@H](CC(C)C)NC(=O)[C@@H](Cc3ccc4ccccc4c3)NC2=O)NC(=O)[C@@H](Cc2c[nH]c3ccccc23)NC(=O)[C@@H](Cc2ccc(Cl)cc2)NC1=O

Same assay, conditions: hek293

Ki | Compound
17 nM | CC(=O)N[C@H](Cc1ccc2ccccc2c1)C(=O)N[C@H](Cc1ccc(Cl)cc1)C(=O)N[C@@H]1CC(=O)NCCCC[C@@H]2NC(=O)[C@H](CC(C)C)NC(=O)[C@@H](CCCNC(=N)N)NC(=O)[C@H](Cc3ccc(O)cc3)NC(=O)[C@H](CC(=O)NC[C@@H](C(N)=O)NC(=O)[C@@H]3CCCN3C2=O)NC1=O
3.1 nM | CC(=O)N[C@H]1CC(=O)NCC(=O)NCC[C@H]2NC(=O)[C@H](CC(=O)NC[C@@H](C(N)=O)NC(=O)[C@@H]3CCCN3C(=O)[C@H](CCCN=C(N)N)NC(=O)[C@H](CC(C)C)NC(=O)[C@@H](Cc3ccc4ccccc4c3)NC2=O)NC(=O)[C@@H](Cc2c[nH]c3ccccc23)NC(=O)[C@@H](Cc2ccc(Cl)cc2)NC1=O
110 nM | CC(=O)N[C@H](Cc1ccc2ccccc2c1)C(=O)N[C@@H]1CCC(=O)NCCCC[C@@H](C(=O)N2CCC[C@H]2C(=O)N[C@H](C)C(N)=O)NC(=O)[C@H](CC(C)C)NC(=O)[C@@H](Cc2ccc3ccccc3c2)NC(=O)[C@H](CCCN=C(N)N)NC(=O)[C@H](C)NC(=O)[C@@H](Cc2cccnc2)NC1=O
0.38 nM | CC(=O)N[C@@H]1CC(=O)NCC(=O)NCC[C@H]2NC(=O)[C@@H](CC(=O)NC[C@H](C(N)=O)NC(=O)[C@H]3CCCN3C(=O)[C@H](CCCN=C(N)N)NC(=O)[C@@H](CC(C)C)NC(=O)[C@@H](Cc3ccc4ccccc4c3)NC2=O)NC(=O)[C@@H](Cc2ccc3ccccc3c2)NC(=O)[C@H](Cc2ccc(Cl)cc2)NC1=O

Species: Rattus norvegicus
Experiment: Antiovulatory potency at 1 ug/rat expressed as rats ovulating by total no. of rats (5/7)
Assay type: functional
Conditions: not given

Compound | Ovulating rats
CC(=O)N[C@@H]1CC(=O)NCC(=O)NCC[C@H]2NC(=O)[C@@H](CC(=O)NC[C@H](C(N)=O)NC(=O)[C@H]3CCCN3C(=O)[C@H](CCCN=C(N)N)NC(=O)[C@@H](CC(C)C)NC(=O)[C@@H](Cc3ccc4ccccc4c3)NC2=O)NC(=O)[C@@H](Cc2ccc3ccccc3c2)NC(=O)[C@H](Cc2ccc(Cl)cc2)NC1=O | 5
